T/C data for seven compounds are collected here from PubChem BioAssay AID220 (DTP/NCI, 2004).

Values joined by “and” are separate entries in the source; they are usually repeats but may differ in a detail not shown here. Equal entries are not always repeated. Inconclusive results are not listed.

The subject of the test is CD8F1 mice, subcutaneous mammary adenocarcinoma, T/C%. The experiment in a line: NCI In Vivo Anticancer Drug Screen. Data for tumor model Mammary Adenocarcinoma CD8F1 (subcutaneous) in CD8F1. Particulars: higher = larger tumour. A digest of the protocol:
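Compound-treated versus vehicle-treated mice with transplantable tumors; survival or tumor size compared as T/C.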

Where [1] appears, read: endpoint: median tumor weight change, dose: 15.62 mg/kg/injection, schedule: Q01DX001 (ip), vehicle: saline with Tween-80.
[2] abbreviates: endpoint: median tumor weight change, dose: 31.25 mg/kg/injection, schedule: Q01DX001 (ip), vehicle: saline with Tween-80.

On to `[Na+]`, for which the T/C reads like this: (endpoint: median tumor weight change, dose: 75.0 mg/kg/injection, schedule: Q01DX001 (ip), vehicle: water) 68 % of control; (endpoint: median tumor weight change, dose: 150.0 mg/kg/injection, schedule: Q01DX001 (ip), vehicle: water) 93 % of control; (endpoint: median tumor weight change, dose: 300.0 mg/kg/injection, schedule: Q01DX001 (ip), vehicle: water) 66 % of control; (endpoint: median tumor weight change, dose: 600.0 mg/kg/injection, schedule: Q01DX001 (ip), vehicle: water) 85 % of control; (endpoint: median tumor weight change, dose: 1200.0 mg/kg/injection, schedule: Q01DX001 (ip), vehicle: water) 67 % of control.

As for `COC1N(C2CC(O)C(CO)O2)C(=O)NC(=O)C1(F)Br` (centres undefined), the T/C (endpoint: median tumor weight (est.), dose: 3.12 mg/kg/injection, schedule: Q07DX005 (ip), vehicle: saline) is 74 % of control; the T/C (endpoint: median tumor weight (est.), dose: 6.25 mg/kg/injection, schedule: Q07DX005 (ip), vehicle: saline) was 54 % of control; the T/C (endpoint: median tumor weight (est.), dose: 6.25 mg/kg/injection, schedule: Q07DX005 (ip), vehicle: suspension in saline) is 67 % of control; the T/C (endpoint: median tumor weight (est.), dose: 12.5 mg/kg/injection, schedule: Q07DX005 (ip), vehicle: saline) was 28 % of control; the T/C (endpoint: median tumor weight (est.), dose: 12.5 mg/kg/injection, schedule: Q07DX005 (ip), vehicle: suspension in saline) was 113 % of control; the T/C (endpoint: median tumor weight (est.), dose: 25.0 mg/kg/injection, schedule: Q07DX005 (ip), vehicle: saline) was 46 % of control. Further, the T/C was 66 % of control (endpoint: median tumor weight (est.), dose: 25.0 mg/kg/injection, schedule: Q07DX005 (ip), vehicle: suspension in saline); 28 % of control (endpoint: median tumor weight (est.), dose: 50.0 mg/kg/injection, schedule: Q07DX005 (ip), vehicle: saline); 45 % of control (endpoint: median tumor weight (est.), dose: 50.0 mg/kg/injection, schedule: Q07DX005 (ip), vehicle: suspension in saline); 5 % of control (endpoint: median tumor weight (est.), dose: 100.0 mg/kg/injection, schedule: Q07DX005 (ip), vehicle: saline); 45 % of control (endpoint: median tumor weight (est.), dose: 100.0 mg/kg/injection, schedule: Q07DX005 (ip), vehicle: suspension in saline); 57 % of control (endpoint: median tumor weight (est.), dose: 200.0 mg/kg/injection, schedule: Q07DX005 (ip), vehicle: suspension in saline).

With `Cc1oc2c(C)c3oc(=O)cc(C)c3cc2c1CCl`, the T/C under setting [1] is 60 % of control; the T/C under setting [2] is 68 % of control; the T/C (endpoint: median tumor weight change, dose: 1000.0 mg/kg/injection, schedule: Q01DX001 (ip), vehicle: saline with Tween-80) was 42 % of control.

As to `COc1cccc2c1C(=O)c1c(O)c3c(c(O)c1C2=O)C[C@@](O)(/C(C)=N/NC(=O)c1cccc([N+](=O)[O-])c1)C[C@@H]3OC1CC(N)C(O)C(C)O1` (some centres undefined), the T/C (endpoint: mean tumor weight, dose: 4.0 mg/kg/injection, schedule: Q07DX004 (ip), vehicle: saline) was 98 % of control; the T/C (endpoint: mean tumor weight, dose: 8.0 mg/kg/injection, schedule: Q07DX004 (ip), vehicle: saline) is 51 % of control; the T/C (endpoint: mean tumor weight, dose: 16.0 mg/kg/injection, schedule: Q07DX004 (ip), vehicle: saline) was 94 % of control; the T/C (endpoint: mean tumor weight, dose: 32.0 mg/kg/injection, schedule: Q07DX004 (ip), vehicle: saline) is 1 % of control; the T/C (endpoint: median tumor weight (est.), dose: 4.0 mg/kg/injection, schedule: Q07DX005 (ip), vehicle: saline) was 93 % of control; the T/C (endpoint: median tumor weight (est.), dose: 8.0 mg/kg/injection, schedule: Q07DX005 (ip), vehicle: saline) is 41 % of control. Under “endpoint: median tumor weight (est.), dose: 16.0 mg/kg/injection, schedule: Q07DX005 (ip), vehicle: saline”, the T/C was 5 % of control.

As to `O=NN(CCCl)C(=O)NCCCl`, the T/C is, setting by setting: (endpoint: mean tumor weight (est.), dose: 7.5 mg/kg/injection, schedule: Q07DX003 (ip), vehicle: saline + alcohol) 58 % of control; (endpoint: mean tumor weight (est.), dose: 12.5 mg/kg/injection, schedule: Q07DX003 (ip), vehicle: saline + alcohol) 46 % of control; (endpoint: mean tumor weight (est.), dose: 15.0 mg/kg/injection, schedule: Q07DX003 (ip), vehicle: saline + alcohol) 34 % of control; (endpoint: mean tumor weight, dose: 1.5 mg/kg/injection, schedule: Q01DX009 (ip), vehicle: saline) 52 % of control; (endpoint: mean tumor weight, dose: 3.0 mg/kg/injection, schedule: Q01DX009 (ip), vehicle: saline) 54 % of control; (endpoint: mean tumor weight, dose: 3.75 mg/kg/injection, schedule: Q07DX007 (ip), vehicle: saline + alcohol) 113 % of control. The T/C by setting is: (endpoint: mean tumor weight, dose: 6.25 mg/kg/injection, schedule: Q01DX009 (ip), vehicle: saline) 26 % of control and 29 % of control; (endpoint: mean tumor weight, dose: 7.5 mg/kg/injection, schedule: Q07DX006 (ip), vehicle: saline + alcohol) 62 % of control; (endpoint: mean tumor weight, dose: 7.5 mg/kg/injection, schedule: Q07DX007 (ip), vehicle: saline + alcohol) 77 % of control; (endpoint: mean tumor weight, dose: 12.5 mg/kg/injection, schedule: Q07DX006 (ip), vehicle: saline + alcohol) 33 % of control; (endpoint: mean tumor weight, dose: 12.5 mg/kg/injection, schedule: Q07DX006 (ip), vehicle: saline) 5 % of control; (endpoint: mean tumor weight, dose: 15.0 mg/kg/injection, schedule: Q07DX006 (ip), vehicle: saline + alcohol) 4 % of control. Moreover, the T/C reads like this: (endpoint: mean tumor weight, dose: 15.0 mg/kg/injection, schedule: Q07DX007 (ip), vehicle: saline + alcohol) 60 % of control; (endpoint: median tumor weight (est.), dose: 1.5 mg/kg/injection, schedule: Q01DX005 (ip), vehicle: saline with Tween-80) 49 % of control; (endpoint: median tumor weight (est.), dose: 2.0 mg/kg/injection, schedule: Q04DX005 (ip), vehicle: saline with Tween-80) 99 % of control; (endpoint: median tumor weight (est.), dose: 2.0 mg/kg/injection, schedule: Q07DX005 (ip), vehicle: saline with Tween-80) 40 % of control and 56 % of control and 65 % of control; (endpoint: median tumor weight (est.), dose: 3.0 mg/kg/injection, schedule: Q01DX005 (ip), vehicle: saline with Tween-80) 69 % of control; (endpoint: median tumor weight (est.), dose: 4.0 mg/kg/injection, schedule: Q04DX005 (ip), vehicle: saline with Tween-80) 44 % of control. In addition, the T/C is, setting by setting: (endpoint: median tumor weight (est.), dose: 6.0 mg/kg/injection, schedule: Q01DX005 (ip), vehicle: saline with Tween-80) 29 % of control; (endpoint: median tumor weight (est.), dose: 8.0 mg/kg/injection, schedule: Q04DX005 (ip), vehicle: saline with Tween-80) 10 % of control; (endpoint: median tumor weight (est.), dose: 8.0 mg/kg/injection, schedule: Q07DX005 (ip), vehicle: saline with Tween-80) 27 % of control and 35 % of control and 38 % of control; (endpoint: median tumor weight (est.), dose: 12.0 mg/kg/injection, schedule: Q01DX005 (ip), vehicle: saline with Tween-80) 2 % of control; (endpoint: median tumor weight (est.), dose: 16.0 mg/kg/injection, schedule: Q04DX005 (ip), vehicle: saline with Tween-80) 5 % of control; (endpoint: median tumor weight (est.), dose: 16.0 mg/kg/injection, schedule: Q07DX005 (ip), vehicle: saline with Tween-80) 1 % of control and 2 % of control and 18 % of control. In addition, the T/C reads like this: (endpoint: median tumor weight change, dose: 7.81 mg/kg/injection, schedule: Q01DX001 (ip), vehicle: saline + alcohol) 70 % of control; (endpoint: median tumor weight change, dose: 8.0 mg/kg/injection, schedule: Q01DX001 (ip), vehicle: saline + alcohol) 32 % of control; (endpoint: median tumor weight change, dose: 15.62 mg/kg/injection, schedule: Q01DX001 (ip), vehicle: saline + alcohol) 40 % of control; under setting [1], 55 % of control; (endpoint: median tumor weight change, dose: 16.0 mg/kg/injection, schedule: Q01DX001 (ip), vehicle: saline + alcohol) 31 % of control; (endpoint: median tumor weight change, dose: 31.0 mg/kg/injection, schedule: Q01DX001 (ip), vehicle: saline + alcohol) 23 % of control. The T/C is 31 % of control (endpoint: median tumor weight change, dose: 31.25 mg/kg/injection, schedule: Q01DX001 (ip), vehicle: saline + alcohol); 20 % of control under setting [2]; -31 % of control (endpoint: median tumor weight change, dose: 62.0 mg/kg/injection, schedule: Q01DX001 (ip), vehicle: saline + alcohol); 17 % of control (endpoint: median tumor weight change, dose: 62.5 mg/kg/injection, schedule: Q01DX001 (ip), vehicle: saline + alcohol); -39 % of control (endpoint: median tumor weight change, dose: 125.0 mg/kg/injection, schedule: Q01DX001 (ip), vehicle: saline + alcohol).

With `CCCCNc1ccc2nnc(C)n2n1`, the T/C is, setting by setting: (endpoint: median tumor weight change, dose: 62.5 mg/kg/injection, schedule: Q01DX001 (ip), vehicle: DMSO) 111 % of control; (endpoint: median tumor weight change, dose: 125.0 mg/kg/injection, schedule: Q01DX001 (ip), vehicle: DMSO) 118 % of control.

Consider `[N-]=[N+]=CC(=O)CCC(=O)C=[N+]=[N-]`, for which the T/C by setting is: (endpoint: median tumor weight (est.), dose: 6.25 mg/kg/injection, schedule: Q07DX005 (ip), vehicle: DMSO) 65 % of control; (endpoint: median tumor weight (est.), dose: 12.5 mg/kg/injection, schedule: Q07DX005 (ip), vehicle: DMSO) 73 % of control; (endpoint: median tumor weight (est.), dose: 25.0 mg/kg/injection, schedule: Q07DX005 (ip), vehicle: DMSO) 78 % of control; (endpoint: median tumor weight (est.), dose: 50.0 mg/kg/injection, schedule: Q07DX005 (ip), vehicle: DMSO) 38 % of control; (endpoint: median tumor weight (est.), dose: 100.0 mg/kg/injection, schedule: Q07DX005 (ip), vehicle: DMSO) 47 % of control.
